Reference: US20250019385A1, “SPIROCYCLIC ANNULATED 2-AMINO-3-CYANO THIOPHENES AND DERIVATIVES FOR THE TREATMENT OF CANCER” (Boehringer Ingelheim International GmbH, priority 2023, published 2025)

test system: AsPC-1 cells; test: AsPC-1 CTG proliferation assay (120 h) (pancreatic cancer, G12D); assay type: cell-based; settings: Homo sapiens, ASPC1
Description: (§1) AsPC-1 cells (ATCC CRL-1682) are dispensed into black 384-well plates, flat and clear bottom (Greiner, PNr. 781091) at a density of 500 cells per well in 60 μl RPMI ATCC-Formulation (PAN P04-18047)+10% FCS (fetal calf serum, HyClone, SH30084.03). Cells are incubated overnight at 37° C. in a humidified tissue culture incubator at 5% CO2. Compounds (10 mM stock in DMSO) are added at logarithmic dose series using the ECHO acoustic liquid handler system (Beckman Coulter), normalizing for added DMSO and including DMSO controls. All compound treatments are performed in technical duplicates. For the TO time point measurement, untreated cells are analyzed at the time of compound addition. Plates are incubated for 120 h, and cell viability is measured using CellTiter-Glo luminescent cell viability reagent (Promega product code G7570). Viability (stated as percent of control) is defined as relative luminescence units RLU of each well divided by the RLU of cells in DMSO controls. IC50 values are determined from viability measurements by non-linear regression using a four-parameter model.
(§2) IC50 values of representative compounds according to the invention measured with these assays in the indicated cell lines are presented in Table 46.

| Compound | IC50 [nM] |
| --- | --- |
| CCn1c(=O)n([C@@H]2CCCOC2)c2nc(-c3onc4c3CCC[C@@]43CCCc4sc(N)c(C#N)c43)nc(OCC34CCCN3CCC4)c21 [I-34] | 5070 |
| CCn1c(=O)n([C@@H]2CCCOC2)c2nc(-c3onc4c3CCC[C@@]43CCCc4sc(N)c(C#N)c43)nc(OC[C@@]34CCCN3C[C@H](F)C4)c21 [I-33] | 8950 |
| C[C@H](Oc1nc(-c2onc3c2CCC[C@@]32CCCc3sc(N)c(C#N)c32)nc2c1n(C)c(=O)n2[C@@H]1CCOC1)[C@@H]1CCCN1C [I-20] | 246 |

Next, values leading:

| IC50 [nM] | Compound |
| --- | --- |
| 300 | C[C@H](Oc1nc(-c2noc3c2CCC[C@@]32CCCc3sc(N)c(C#N)c32)nc2c1cnn2[C@@H]1CCOC1)[C@@H]1CCCN1C [II-4] |
| 57 | CO[C@@H]1C[C@@H]([C@H](C)Oc2nc(-c3noc4c3CCC[C@@]43CCCc4sc(N)c(C#N)c43)nc3c2CN(C2COC2)C[C@]32CCOC2)N(C)C1 [II-14] |
| 43 | CO[C@H]1CCN(C)[C@@H]1[C@H](C)Oc1nc(-c2noc3c2CCC[C@@]32CCCc3sc(N)c(C#N)c32)nc2c1CN(C1COC1)C[C@]21CCOC1 [II-13] |

test system: NCI-H358 cells; test: NCI-H358 CTG proliferation assay (120 h) (NSCLC, G12C); assay type: cell-based; settings: Homo sapiens
Description: as §1, with “NCI-H358” for “AsPC-1”, “No. CRL-5807)” for “CRL-1682)”, “200” for “500”, “RPMI-1640” for “RPMI”, “(Gibco #A10491)+10%” for “(PAN P04-18047)+10%”, “serum).” for “serum, HyClone, SH30084.03).”
as §2

| Compound | IC50 [nM] |
| --- | --- |
| CCn1c(=O)n([C@@H]2CCCOC2)c2nc(-c3onc4c3CCC[C@@]43CCCc4sc(N)c(C#N)c43)nc(OCC34CCCN3CCC4)c21 [I-34] | 475 |
| CCn1c(=O)n([C@@H]2CCCOC2)c2nc(-c3onc4c3CCC[C@@]43CCCc4sc(N)c(C#N)c43)nc(OC[C@@]34CCCN3C[C@H](F)C4)c21 [I-33] | 921 |
| C[C@H](Oc1nc(-c2onc3c2CCC[C@@]32CCCc3sc(N)c(C#N)c32)nc2c1n(C)c(=O)n2[C@@H]1CCOC1)[C@@H]1CCCN1C [I-20] | 4 |

The remaining lines, values ahead:

| IC50 [nM] | Compound |
| --- | --- |
| 35 | C[C@H](Oc1nc(-c2noc3c2CCC[C@@]32CCCc3sc(N)c(C#N)c32)nc2c1cnn2[C@@H]1CCOC1)[C@@H]1CCCN1C [II-4] |
| 4 | CO[C@@H]1C[C@@H]([C@H](C)Oc2nc(-c3noc4c3CCC[C@@]43CCCc4sc(N)c(C#N)c43)nc3c2CN(C2COC2)C[C@]32CCOC2)N(C)C1 [II-14] |
| 2 | CO[C@H]1CCN(C)[C@@H]1[C@H](C)Oc1nc(-c2noc3c2CCC[C@@]32CCCc3sc(N)c(C#N)c32)nc2c1CN(C1COC1)C[C@]21CCOC1 [II-13] |

test system: NCI-H727 cells; test: NCI-H727 CTG proliferation assay (120 h) (lung cancer, G12V); assay type: cell-based; settings: Homo sapiens
Description: as §1, with “NCI-H727” for “AsPC-1”, “No. CRL-5815)” for “CRL-1682)”
as §2

| Compound | IC50 [nM] |
| --- | --- |
| CCn1c(=O)n([C@@H]2CCCOC2)c2nc(-c3onc4c3CCC[C@@]43CCCc4sc(N)c(C#N)c43)nc(OCC34CCCN3CCC4)c21 [I-34] | 282 |
| CCn1c(=O)n([C@@H]2CCCOC2)c2nc(-c3onc4c3CCC[C@@]43CCCc4sc(N)c(C#N)c43)nc(OC[C@@]34CCCN3C[C@H](F)C4)c21 [I-33] | 899 |
| C[C@H](Oc1nc(-c2onc3c2CCC[C@@]32CCCc3sc(N)c(C#N)c32)nc2c1n(C)c(=O)n2[C@@H]1CCOC1)[C@@H]1CCCN1C [I-20] | 2 |

More lines, now with the values ahead:

| IC50 [nM] | Compound |
| --- | --- |
| 12 | C[C@H](Oc1nc(-c2noc3c2CCC[C@@]32CCCc3sc(N)c(C#N)c32)nc2c1cnn2[C@@H]1CCOC1)[C@@H]1CCCN1C [II-4] |
| 3 | CO[C@@H]1C[C@@H]([C@H](C)Oc2nc(-c3noc4c3CCC[C@@]43CCCc4sc(N)c(C#N)c43)nc3c2CN(C2COC2)C[C@]32CCOC2)N(C)C1 [II-14] |
| 1 | CO[C@H]1CCN(C)[C@@H]1[C@H](C)Oc1nc(-c2noc3c2CCC[C@@]32CCCc3sc(N)c(C#N)c32)nc2c1CN(C1COC1)C[C@]21CCOC1 [II-13] |

test system: not listed separately; test: Metabolic (microsomal) stability assay, human liver microsomes (HLM); assay type: in vitro ADME; settings: 1 μM test compound, predicted clearance as percent of liver blood flow

| Compound | HLM QH [%] |
| --- | --- |
| CCn1c(=O)n([C@@H]2CCCOC2)c2nc(-c3onc4c3CCC[C@@]43CCCc4sc(N)c(C#N)c43)nc(OCC34CCCN3CCC4)c21 [I-34] | <24 |
| CCn1c(=O)n([C@@H]2CCCOC2)c2nc(-c3onc4c3CCC[C@@]43CCCc4sc(N)c(C#N)c43)nc(OC[C@@]34CCCN3C[C@H](F)C4)c21 [I-33] | 48 |
| C[C@H](Oc1nc(-c2onc3c2CCC[C@@]32CCCc3sc(N)c(C#N)c32)nc2c1n(C)c(=O)n2[C@@H]1CCOC1)[C@@H]1CCCN1C [I-20] | 26 |

Now from value to molecule:

| HLM QH [%] | Compound |
| --- | --- |
| 40 | C[C@H](Oc1nc(-c2noc3c2CCC[C@@]32CCCc3sc(N)c(C#N)c32)nc2c1cnn2[C@@H]1CCOC1)[C@@H]1CCCN1C [II-4] |
| 59 | CO[C@@H]1C[C@@H]([C@H](C)Oc2nc(-c3noc4c3CCC[C@@]43CCCc4sc(N)c(C#N)c43)nc3c2CN(C2COC2)C[C@]32CCOC2)N(C)C1 [II-14] |
| 66 | CO[C@H]1CCN(C)[C@@H]1[C@H](C)Oc1nc(-c2noc3c2CCC[C@@]32CCCc3sc(N)c(C#N)c32)nc2c1CN(C1COC1)C[C@]21CCOC1 [II-13] |

test system: SK-CO-1 cells; test: SK-CO-1 CTG proliferation assay (120 h) (CRC, G12V); assay type: cell-based; settings: Homo sapiens
Description: as §1, with “SK—CO-1” for “AsPC-1”, “HTB-39)” for “CRL-1682)”, “EMEM (Sigma M5650)+10%” for “RPMI ATCC-Formulation (PAN P04-18047)+10%”
as §2

| Compound | IC50 [nM] |
| --- | --- |
| CCn1c(=O)n([C@@H]2CCCOC2)c2nc(-c3onc4c3CCC[C@@]43CCCc4sc(N)c(C#N)c43)nc(OCC34CCCN3CCC4)c21 [I-34] | 273 |
| CCn1c(=O)n([C@@H]2CCCOC2)c2nc(-c3onc4c3CCC[C@@]43CCCc4sc(N)c(C#N)c43)nc(OC[C@@]34CCCN3C[C@H](F)C4)c21 [I-33] | 911 |
| C[C@H](Oc1nc(-c2onc3c2CCC[C@@]32CCCc3sc(N)c(C#N)c32)nc2c1n(C)c(=O)n2[C@@H]1CCOC1)[C@@H]1CCCN1C [I-20] | 3 |

Now from value to molecule:

| IC50 [nM] | Compound |
| --- | --- |
| 10 | C[C@H](Oc1nc(-c2noc3c2CCC[C@@]32CCCc3sc(N)c(C#N)c32)nc2c1cnn2[C@@H]1CCOC1)[C@@H]1CCCN1C [II-4] |
| 6 | CO[C@@H]1C[C@@H]([C@H](C)Oc2nc(-c3noc4c3CCC[C@@]43CCCc4sc(N)c(C#N)c43)nc3c2CN(C2COC2)C[C@]32CCOC2)N(C)C1 [II-14] |
| 3 | CO[C@H]1CCN(C)[C@@H]1[C@H](C)Oc1nc(-c2noc3c2CCC[C@@]32CCCc3sc(N)c(C#N)c32)nc2c1CN(C1COC1)C[C@]21CCOC1 [II-13] |
